Common to all, as to assay: NCI anticancer screen, dose series, 48 h
The subject of assay [1] is SK-MEL-28 melanoma.
The test system of assay [2] is SK-OV-3 ovarian.
Assay [3] relates to A549 NSCLC.
For assay [4], the system named is SK-MEL-5 melanoma.
Assay [5] has as its system UO-31 renal.
Assay [6] deals with A498 renal.
The subject of assay [7] is OVCAR-3 ovarian.
The subject of assay [8] is NCI-H460 lung.
Assay [9] has as its system MOLT-4 leukemia.
For assay [10], the system named is NCI-H226 lung.

Molecules are shown by their SMILES.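 1) Cells in 96-well plates. 2) Compound, 48 h, 5 concentrations. 3) Linear interpolation between surrounding doses. 4) Unreached endpoint = highest concentration. Here, GI50 denotes the concentration required for 50% inhibition of growth. TGI: total growth inhibition.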 Where only a bound is given, the exact number is not on record here.

Take `CCc1ccc(Cc2ccc(CC)c(NC(=O)C(=O)Cc3nc4ccccc4nc3C)c2CC)c(CC)c1NC(=O)C(=O)Cc1nc2ccccc2nc1C`: the TGI in assay [1] was more than 100 µM; in assay [2] it was more than 100 µM; in assay [3], more than 100 µM; in assay [4], more than 100 µM; in assay [5] it was 72.8 µM; in assay [6], more than 100 µM. The TGI in assay [7], in [8] and in assay [9] was more than 100 µM throughout.

Turning to `COCCNC(=O)C1C(=O)N(CCOC)C(=O)/C1=N/N` (configuration not stated), the TGI in assay [1], in [2], in [10], in [3], in [5] and in assay [7] was more than 100 µM each time. The TGI in assay [9] is more than 100 µM.

As to `CC/C(=C(\c1ccccc1)c1ccc(OCCN(C)C)cc1)c1ccccc1`, the GI50 was 1.6 µM in [1]; 2.93 µM in [3]; 0.852 µM in assay [4]; 5.73 µM in assay [5]; 2.3 µM in [6]; 2.84 µM in assay [7].

For `[N-]=[N+]=Nc1ccc(S(=O)(=O)Oc2cc(OS(=O)(=O)c3ccc(N=[N+]=[N-])cc3)cc(OS(=O)(=O)c3ccc(N=[N+]=[N-])cc3)c2)cc1`, the TGI in assay [1] was more than 100 µM; in assay [10], more than 10 µM; in assay [3], more than 100 µM; in assay [4], more than 100 µM; in assay [5], more than 100 µM; in assay [6] it was more than 100 µM. Besides, the TGI in assay [7], in assay [8] and in assay [9] was more than 100 µM throughout.

Consider `CC(=O)OC1COC(N2C(=O)C(=O)c3c(C)cc(Cl)nc32)C(OC(C)=O)C1OC(C)=O` (configuration not stated), for which the TGI in assay [1], in assay [10], in assay [3], in assay [4], in assay [5] and in assay [6] was more than 100 µM in each case. In addition, the TGI in assay [7], in assay [8] and in assay [9] was more than 100 µM throughout.

On to `COC1OC(OC)C2C(c3c(C)cc(C)cc3C)=NOC12` (configuration not stated), for which the TGI in assay [1], in assay [2], in [10], in [3], in assay [4] and in assay [5] was more than 100 µM in each case. The TGI in [7], in assay [8] and in assay [9] was more than 100 µM throughout.

As for `COc1ccc(C(=O)O/N=C2\CCCC\C2=C/c2ccccc2)cc1`, the TGI in [1], in assay [2], in assay [3], in assay [4], in assay [5] and in [6] was more than 100 µM in each case. Further, the TGI in assay [8] and in [9] was more than 100 µM each time.

For the compound `COC1CCC(=C2C(=O)OC(C)(C)OC2=O)N1` (configuration not stated), the TGI in [1], in [2], in assay [10], in [3], in assay [5] and in assay [8] was more than 100 µM in each case. The TGI in assay [9] is more than 100 µM.

With `CCCCN(CCCC)C(=Nc1ccccc1)N(CCCC)CCCC`, the TGI in [1] is 11.8 µM; in assay [2], 22.6 µM; in [3], 27.9 µM; in assay [5], 14.3 µM; in assay [6], 37.8 µM; in assay [7] it was 12.1 µM. Moreover, the TGI in [8] amounted to 19.1 µM; in [9] it was 13.1 µM.

For `CCCCNC(=S)Nn1c(-c2ccccc2)nc2ccccc2c1=O`, the TGI in assay [1], in assay [2], in [10], in [3], in [4] and in assay [5] was more than 100 µM throughout. Further, the TGI in assay [6], in assay [8] and in assay [9] was more than 100 µM throughout.

For the compound `Cc1ccc(S(=O)(=O)NCCCN(CCCNS(=O)(=O)c2ccc(C)cc2)S(=O)(=O)c2ccc(C)cc2)cc1`, the TGI in assay [1], in [2], in [10], in assay [3], in [5] and in assay [7] was more than 100 µM each time. Moreover, the TGI in assay [8] and in assay [9] was more than 100 µM throughout.

Consider `CN1CCC(O)C(CNC23CC4CC(CC(C4)C2)C3)C1` (configuration not stated), for which the TGI in assay [2], in [10], in assay [3], in [4], in assay [5] and in [6] was more than 100 µM each time. In addition, the TGI in assay [8] and in assay [9] was more than 100 µM throughout.

For `CCOC(=O)C(C(=O)c1ccccc1-c1ccccc1C(=O)O)=P(c1ccccc1)(c1ccccc1)c1ccccc1`, the TGI was 33.3 µM in [1]; 73.7 µM in [10]; more than 100 µM in [3]; 29.6 µM in assay [4]; 88.8 µM in [6]; 67 µM in [7]. The TGI in assay [8] amounted to 39 µM; in assay [9], 79 µM.

Regarding `CN(C)CCCn1cnc2ncccc2c1=O`, the TGI in [1], in assay [2], in assay [10], in assay [3], in assay [4] and in assay [5] was more than 100 µM in each case. In addition, the TGI in assay [7], in assay [8] and in assay [9] was more than 100 µM each time.

For the compound `Nc1nc2nc3c(nc2c(=O)[nH]1)CN(c1ccc(C(=O)O)cc1)C3=O`, the TGI in [1], in [2], in assay [10], in [3], in assay [4] and in assay [5] was more than 100 µM each time. For the same compound, the TGI in assay [6] and in assay [8] was more than 100 µM in each case.

Regarding `c1ccc([CH2][Sn]([CH2]c2ccccc2)([S]c2cccc3cccnc23)[S]c2cccc3cccnc23)cc1`, the GI50 in assay [1] is 0.201 µM; in assay [2], 1.76 µM; in assay [4] it was 0.299 µM; in [5], 0.187 µM; in assay [6], 0.288 µM; in [7], 0.136 µM. For the same compound, in [8], the GI50 is 0.273 µM. Further, the TGI in [1] was determined as 0.864 µM; in assay [2], 3.15 µM; in [4], 1.18 µM; in assay [5], 0.399 µM; in [6], 0.95 µM; in assay [7], 0.383 µM. In [8], this compound had a TGI of 1.01 µM.

In the case of `COc1ccc(CCNc2nc3ccccc3c3[nH]c4ccccc4c23)cc1OC`, the GI50 is 1.71 µM in assay [1]; 19.9 µM in assay [2]; 7.82 µM in [10]; 2.66 µM in assay [3]; 1.8 µM in assay [4]; 2.75 µM in [6]. In addition, the GI50 in [7] was 1.98 µM; in [8], 2.1 µM; in assay [9], 3.23 µM. The TGI in assay [1] came to 3.21 µM; in assay [2], 34.6 µM; in [10], 25 µM; in assay [3], 8.24 µM; in [4] it was 3.21 µM; in assay [6], 9.48 µM. Also, the TGI was found to be 4.24 µM in assay [7], 5.93 µM in [8] and 12.3 µM in [9].

Take `O=C(CC1Sc2ccccc2NC1=O)Nc1cccc(Cl)c1` (configuration not stated): the TGI in assay [1] was 89.7 µM; in assay [10], 90.8 µM; in assay [3], more than 100 µM; in [4], more than 100 µM; in assay [5], 82.5 µM; in assay [6] it was more than 100 µM. Besides, the figures for the TGI in [7], in [8] and in assay [9] were 86.8 µM, more than 100 µM and 57.2 µM, respectively.

Take `C[N+](C)(C)CC(=O)N/N=C(/C=C/c1ccccc1)CC1OC(=O)c2ccccc21` (configuration not stated): the TGI in assay [1], in [2], in [10], in assay [3], in [4] and in assay [5] was more than 100 µM throughout. Further, the TGI in [6], in [8] and in assay [9] was more than 100 µM in each case.

`CC(C)NC(=O)OCc1nnn2c1C(OC(=O)NC(C)C)CC2` (configuration not stated): the TGI in assay [1], in assay [2], in assay [10], in [3], in assay [4] and in assay [5] was more than 100 µM each time. Further, the TGI in assay [7], in [8] and in assay [9] was more than 100 µM in each case.

In the case of `COC(=O)C1Cc2c([nH]c3ccccc23)[C@H](CC(C)C)N1` (some centres not stated), the TGI in [1], in assay [2], in [10], in assay [3], in assay [5] and in assay [6] was more than 100 µM each time. For the same compound, the TGI in assay [7] and in assay [9] was more than 100 µM in each case.

Consider `CC(C)c1ccc2c(c1)CCC1C(C)(C)[C@@H](O)CC[C@]21C` (some centres not stated), for which the TGI in assay [1] was more than 100 µM; in assay [2], more than 100 µM; in [10], 38.5 µM; in [3] it was more than 100 µM; in assay [4] it was 32.1 µM; in [5], more than 100 µM. Also, the TGI was more than 100 µM in [7], 41.4 µM in assay [8] and 89.9 µM in assay [9].

For the compound `Cn1cc(-c2ccc3cc(-c4ccc(CC(=O)Nc5cc(C(C)(C)C)nn5C)cc4)cnc3c2)cn1`, the GI50 in [1] was 0.41 µM; in [2] it was 0.109 µM; in assay [10] it was 0.317 µM; in assay [3], 0.336 µM; in assay [4], 0.227 µM; in [6], 0.0246 µM. Moreover, the GI50 is 0.336 µM in [7], 0.165 µM in assay [8] and 0.282 µM in assay [9]. Besides, the TGI in assay [1] is more than 100 µM; in [2], more than 100 µM; in [10] it was more than 100 µM; in assay [3], more than 100 µM; in assay [4], 0.585 µM; in assay [6], 0.175 µM. Also, the TGI in assay [7], in [8] and in assay [9] was more than 100 µM throughout.

With `COc1cc[c]([Hg][Cl])cc1`, the GI50 was 1.65 µM in assay [1]; 14.2 µM in [2]; 22.9 µM in [10]; 23.8 µM in [3]; 2.71 µM in assay [4]; 14.6 µM in assay [5]. The GI50 in [6] is 17.6 µM; in [8] it was 10.3 µM; in assay [9], 1.64 µM. Also, the TGI in assay [1] came to 3.36 µM; in [2], 27.3 µM; in assay [10], 50.6 µM; in [3], 40.8 µM; in assay [4], 11.1 µM; in [5] it was 28.9 µM. The TGI in [6] was found to be 31.5 µM; in assay [8], 25.5 µM; in assay [9], 6.59 µM.

Consider `C#Cc1cccc(NC(=O)Nc2ccccc2NC(=O)CCl)c1`, for which the GI50 in [1] was 23.7 µM; in assay [2], more than 82.5 µM; in assay [10], 16 µM; in assay [3] it was 25.4 µM; in assay [4], 14.2 µM; in [5] it was 11.1 µM. Moreover, the values for the GI50 in [7], in [8] and in [9] were 13.5 µM, 16.5 µM and 25.6 µM, respectively. The TGI in assay [1] was more than 82.5 µM; in [2] it was more than 82.5 µM; in [10], 34.1 µM; in assay [3], more than 82.5 µM; in assay [4], 26.9 µM; in [5] it was 21.6 µM. Moreover, the TGI in assay [7] was 25.5 µM; in assay [8] it was 33.9 µM; in assay [9], more than 82.5 µM.
